Measured values reported in patent EP0955045A1, “DRUGS FOR IMPROVING OCULAR CIRCULATION DISORDERS” (Senju Pharmaceutical Co., Ltd., priority 1996, dated 1998).
Structures can show the parent of a compound that is named as a salt. Where two headings read alike, the source gives them in different places.

Assays:
[1] = system: blood flow of optic nerve head induced by intravitreous injection of ET-1; experiment: Effect of topical instillation on the ET-1-induced decrease in optic nerve head blood flow (hydrogen clearance method); type: in vivo, Male Dutch pigmented rabbits; details: versus physiological saline in contralateral eye; 30 to 120 minutes after ET-1 injection; paired t-test; n=6
Method: The effect of topically applied amosulalol hydrochloride on the blood flow of optic nerve head induced by intravitreous injection of ET-1 in pigmented rabbits.
Male Dutch pigmented rabbits weighing about 2 kg were purchased from Fukusaki Rabbit Farmers Association and used after confirmation of absence of ocular abnormality. The rabbits were housed at 23 ±3 °C and 55±10% R.H. and put on a ration of 100 g/day of rabbit chow (Labo R Stock, Nippon Nosan Kogyo K.K.) with free access to tap water.
As the investigational drug, the anti-ocular circulatory disturbance composition containing 0.5% (w/v) of amosulalol hydrochloride as obtained in Example 7 was used. As a control drug, physiological saline solution was used. […]
The rabbit was placed in a retainer for rabbits and, after instillation of Mydrin P (Registered Trademark, Santen Pharmaceutical) for mydriasis and observation of the optic nerve head for any abnormality, general anesthesia was introduced by injecting urethane (dissolved in distilled water to 20% concentration), 1 g/kg, subcutaneously in the abdominal region. […] The half-life (T1/2) was determined from the line and the blood flow was calculated by means of Kety's theoretical formula (Journal of Clinical Investigate, 27, 476-483, 1948). […]

mice = details: cited from earlier work

## COc1ccccc1OCCNCC(O)c1ccc(C)c(S(N)(=O)=O)c1 (stereo not drawn) [amosulalol hydrochloride, 5-{1-hydroxy-2-[2-(2-methoxyphenoxy)ethylamino]ethyl}-2-methylbenzenesulfonamide]
[1]
  inhibition of the ET-1-induced decrease in blood flow: inhibited
mice; intravenous administration
  acute toxicity: very low
mice; oral administration
  acute toxicity: very low
